What follows are compounds tested against T1, PPARγ (Homo sapiens, UniProt P37231) (assay: PPARγ ligand binding assay utilizing [3H]-BRL 49653 as the radioligand (filtration)). Settings: concentration required to reduce by 50% the specific binding of [3H]-BRL 49653.
T1 construct: made in house
T1 sequence (P37231 1-505): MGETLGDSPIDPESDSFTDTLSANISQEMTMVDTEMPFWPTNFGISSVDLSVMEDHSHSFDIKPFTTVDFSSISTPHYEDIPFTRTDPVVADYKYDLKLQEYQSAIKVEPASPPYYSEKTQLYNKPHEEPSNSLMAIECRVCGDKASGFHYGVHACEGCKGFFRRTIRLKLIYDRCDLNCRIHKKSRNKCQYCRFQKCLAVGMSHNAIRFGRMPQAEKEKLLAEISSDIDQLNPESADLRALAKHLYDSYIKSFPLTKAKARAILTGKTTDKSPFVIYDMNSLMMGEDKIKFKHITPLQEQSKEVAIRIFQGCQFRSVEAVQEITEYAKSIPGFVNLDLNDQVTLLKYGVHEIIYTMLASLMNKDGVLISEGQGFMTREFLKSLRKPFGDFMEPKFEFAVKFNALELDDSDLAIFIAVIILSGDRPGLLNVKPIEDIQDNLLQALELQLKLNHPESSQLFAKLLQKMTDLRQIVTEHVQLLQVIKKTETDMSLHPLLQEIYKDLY
From the text: The compounds of the present invention can be evaluated for modulation of the PPARγ receptor using assays such as those described in Jiang, et al., Nature 391:82-86 (1998), Ricote, et al., Nature 391:79-82 (1998) and Lehmann, et al., J. Biol. Chem. 270(12): 12953-12956 (1995). Alternatively, the compounds can be evaluated for their ability to displace radiolabeled BRL 49653 from a PPARγ-GST fusion protein as follows:
PPARγ-GST fusion protein (prepared according to standard procedures), [^3H]-BRL 49653 having 50 Ci/mmol specific activity, Polyfiltronics Unifilter 350 filtration plate and glutathione-Sepharose® beads (from Pharmacia: washed twice with 10× binding buffer in which BSA and DTI can be left out).
Binding buffer (10 mM Tris-HCl, pH 8.0, 50 mM KCl, 10 mM DTT, 0.02% BSA and 0.0 1% NP-40) is added in 80-μL amounts to the wells of the filtration plate. The test compound is then added in 10 μL of DMSO. The PPARγ-GST fusion protein and radiolabeled BRL compound are premixed in binding buffer containing 10 mM DTT and added in 10-μL amounts to the wells of the plate to provide final concentrations of 1 µg/well of PPARγ-GST fusion protein and 10 nM [^3H]-BRL 49653 compound. The plate is incubated for 15 min. Glutathione-agarose bead is added in 50 μL of binding buffer, and the plate is vigorously shaken for one hour. The plate is washed four times with 200 μL/well of binding buffer (without BSA and DTT). The bottom of the plate is sealed and 200 μL/well of scintillation cocktail is added. The top of the plate is then sealed and the radioactivity is determined.
IC50 values are defined as the concentration of test compounds required to reduce by 50% the specific binding of [^3H]-BRL 49653 and are represented by (+)<30 μM; (++)<10 μM; (+++)<1 μM.
Work on `Cc1cc(NS(=O)(=O)c2ccc(Cl)cc2Cl)ncc1Sc1ccc(S(=O)(=O)N2CCOCC2)cc1` [Compound 75, 2,4-Dichloro-N-{4-methyl-5-[4-(morpholine-4-sulfonyl) -phenylsulfanyl]-pyridin-2-yl}-benzenesulfonamide] yielded an IC50 of under 1 µM.
Work on `COC(=O)c1nc(NS(=O)(=O)c2ccc(Cl)cc2Cl)ccc1Sc1ccc(S(=O)(=O)N2CCOCC2)cc1` [Compound 76, 6-(2,4-Dichloro-benzenesulfonylamino)-3-[4-(morpholine-4-sulfonyl)-phenylsulfanyl]-pyridine-2-carboxylic acid methyl ester] yielded an IC50 of under 1 µM.
`Cc1nc(NS(=O)(=O)c2ccc(Cl)cc2Cl)ccc1Sc1ccc(S(=O)(=O)N2CCOCC2)cc1` [Compound 77, 2,4-Dichloro-N-{6-methyl-5-[4-(morpholine-4-sulfonyl) -phenylsulfanyl]-pyridin-2-yl}-benzenesulfonamide] showed an IC50 of under 1 µM.
For `CCCC(=O)c1nc(NS(=O)(=O)c2ccc(Cl)cc2Cl)ccc1Sc1ccc(S(=O)(=O)N2CCOCC2)cc1` [Compound 78, N-{6-Butyryl-5-[4-(morpholine-4-sulfonyl)-phenylsulfanyl]-pyridin-2-yl}-2,4-dichloro-benzenesulfonamide], the IC50 was under 1 µM.
`O=C(c1nc(NS(=O)(=O)c2ccc(Cl)cc2Cl)ccc1Sc1ccc(S(=O)(=O)N2CCOCC2)cc1)C1CC1` [Compound 79, 2,4-Dichloro-N-{6-cyclopropanecarbonyl-5-[4-(morpholine-4-sulfonyl)-phenylsulfanyl]-pyridin-2-yl}-benzenesulfonamide] was tested, and the IC50 was under 1 µM.
With `CC(C)CC(=O)c1nc(NS(=O)(=O)c2ccc(Cl)cc2Cl)ccc1Sc1ccc(S(=O)(=O)N2CCOCC2)cc1` [Compound 80, 2,4-Dichloro-N-{6-(3-methyl-butyryl)-5-[4-(morpholine-4-sulfonyl)-phenylsulfanyl]-pyridin-2-yl}-benzenesulfonamide] the IC50 was under 1 µM.
For `CCCC(=O)c1nc(NS(=O)(=O)c2ccc(C(F)(F)F)cc2Cl)ccc1Sc1ccc(S(=O)(=O)N2CCCCC2)cc1` [Compound 81, N-{6-Butyryl-5-[4-(piperidine-1-sulfonyl)-phenylsulfanyl]-pyridin-2-yl}-2-chloro-4-trifluoromethyl-benzenesulfonamide], the IC50 was under 1 µM.
With `O=C(c1nc(NS(=O)(=O)c2ccc(Cl)cc2Cl)ccc1Sc1ccc(S(=O)(=O)N2CCCCC2)cc1)C1CC1` [Compound 82, 2,4-Dichloro-N-{6-cyclopropanecarbonyl-5-[4-(piperidine-1-sulfonyl)-phenylsulfanyl]-pyridin-2-yl}-benzenesulfonamide] the IC50 was under 1 µM.
With `CC(C)CC(=O)c1nc(NS(=O)(=O)c2ccc(Cl)cc2Cl)ccc1Sc1ccc(S(=O)(=O)N2CCCCC2)cc1` [Compound 83, 2,4-Dichloro-N-{6-(3-methyl-butyryl)-5-[4-(piperidine-1-sulfonyl)-phenylsulfanyl]-pyridin-2-yl}-benzenesulfonamide] the IC50 was under 1 µM.
`CCC(=O)c1nc(NS(=O)(=O)c2ccc(Cl)cc2Cl)ccc1Sc1ccc(S(=O)(=O)N2CCCCC2)cc1` [Compound 84, 2,4-Dichloro-N-{5-[4-(piperidine-1-sulfonyl)-phenylsulfanyl]-6-propionyl-pyridin-2-yl}-benzenesulfonamide] showed an IC50 of under 1 µM.
`CC(C)NC(=O)c1nc(NS(=O)(=O)c2ccc(Cl)cc2Cl)ccc1Sc1ccc(S(=O)(=O)N2CCCCC2)cc1` [Compound 85, 6-(2,4-Dichloro-benzenesulfonylamino)-3-[4-(piperidine-1-sulfonyl)-phenylsulfanyl]-pyridine-2-carboxylic acid isopropylamide] gave an IC50 of under 1 µM.
With `CCC(=O)c1nc(NS(=O)(=O)c2ccc(Cl)cc2Cl)ccc1Sc1ccc(S(=O)(=O)N2CCOCC2)cc1` [Compound 86, 2,4-Dichloro-N-{5-[4-(morpholine-4-sulfonyl)-phenylsulfanyl]-6-propionyl-pyridin-2-yl}-benzenesulfonamide] the IC50 was under 1 µM.
Work on `CCCC(=O)c1nc(NS(=O)(=O)c2ccc(C(F)(F)F)cc2Cl)ccc1Sc1ccc(S(=O)(=O)N2CCOCC2)cc1` [Compound 87, N-{6-Butyryl-5-[4-(morpholine-4-sulfonyl)-phenylsulfanyl]-pyridin-2-yl}-2-chloro-4-trifluoromethyl-benzenesulfonamide] yielded an IC50 of under 1 µM.
`O=C(c1nc(NS(=O)(=O)c2ccc(C(F)(F)F)cc2Cl)ccc1Sc1ccc(S(=O)(=O)N2CCOCC2)cc1)C1CC1` [Compound 88, 2-Chloro-N-{6-cyclopropanecarbonyl-5-[4-(morpholine-4-sulfonyl)-phenylsulfanyl]-pyridin-2-yl}-4-trifluoromethyl-benzenesulfonamide] was tested, and the IC50 was under 1 µM.
`O=C(c1nc(NS(=O)(=O)c2ccc(C(F)(F)F)cc2Cl)ccc1Sc1ccc(S(=O)(=O)N2CCCCC2)cc1)C1CC1` [Compound 89, 2-Chloro-N-{6-cyclopropanecarbonyl-5-[4-(piperidine-1-sulfonyl)-phenylsulfanyl]-pyridin-2-yl}-4-trifluoromethyl-benzenesulfonamide] showed an IC50 of under 1 µM.
`CCCC(=O)c1nc(NS(=O)(=O)c2ccc(Cl)cc2Cl)ccc1Sc1ccc(S(=O)(=O)N2CCCC2)cc1` [Compound 94, N-{6-Butyryl-5-[4-(pyrrolidine-1-sulfonyl)-phenylsulfanyl]-pyridin-2-yl}-2,4-dichloro-benzenesulfonamide] showed an IC50 of under 1 µM.
For `O=C(c1nc(NS(=O)(=O)c2ccc(Cl)cc2Cl)ccc1Sc1ccc(S(=O)(=O)N2CCCC2)cc1)C1CC1` [Compound 95, 2,4-Dichloro-N-{6-cyclopropanecarbonyl-5-[4-(pyrrolidine-1-sulfonyl)-phenylsulfanyl]-pyridin-2-yl}-benzenesulfonamide], the IC50 was under 1 µM.
`CCC(=O)c1nc(NS(=O)(=O)c2ccc(Cl)cc2Cl)ccc1Sc1ccc(S(=O)(=O)N2CCCC2)cc1` [Compound 96, 2,4-Dichloro-N-{6-propionyl-5-[4-(pyrrolidine-1-sulfonyl) -phenylsulfanyl]-pyridin-2-yl}-benzenesulfonamide] was tested, and the IC50 was under 1 µM.
`CCCC(=O)c1nc(NS(=O)(=O)c2ccc(C(F)(F)F)cc2Cl)ccc1Sc1ccc(S(=O)(=O)N2CCCC2)cc1` [Compound 97, N-{6-Butyryl-5-[4-(pyrrolidine-1-sulfonyl)-phenylsulfanyl]-pyridin-2-yl}-2-chloro-4-trifluoromethyl-benzenesulfonamide] showed an IC50 of under 1 µM.
`O=C(c1nc(NS(=O)(=O)c2ccc(C(F)(F)F)cc2Cl)ccc1Sc1ccc(S(=O)(=O)N2CCCC2)cc1)C1CC1` [Compound 98, 2-Chloro-N-{6-cyclopropanecarbonyl-5-[4-(pyrrolidine-1-sulfonyl)-phenylsulfanyl]-pyridin-2-yl}-4-trifluoromethyl-benzenesulfonamide] showed an IC50 of under 1 µM.
`CCCC(=O)c1nc(NS(=O)(=O)c2ccc(C(F)(F)F)cc2Cl)ccc1Sc1ccc(S(=O)(=O)N(CC)CC)cc1` [Compound 99, N-[6-Butyryl-5-(4-diethylsulfamoyl-phenylsulfanyl)-pyridin-2-yl]-2-chloro-4-trifluoromethyl-benzenesulfonamide] was tested, and the IC50 was under 1 µM.
Work on `CCN(CC)S(=O)(=O)c1ccc(Sc2ccc(NS(=O)(=O)c3ccc(C(F)(F)F)cc3Cl)nc2C(=O)C2CC2)cc1` [Compound 100, 2-Chloro-N-[6-cyclopropanecarbonyl-5-(4-diethylsulfamoyl-phenylsulfanyl)-pyridin-2-yl]-4-trifluoromethyl-benzenesulfonamide] yielded an IC50 of under 1 µM.
`CCCC(=O)c1nc(NS(=O)(=O)c2ccc(C(F)(F)F)cc2Cl)ccc1Sc1ccc(S(=O)(=O)C2CCOCC2)cc1` [Compound 101, N-{6-Butyryl-5-[4-(tetrahydro-pyran-4-sulfonyl)-phenylsulfanyl]-pyridin-2-yl}-2-chloro-4-trifluoromethyl-benzenesulfonamide] was tested, and the IC50 was under 1 µM.
In the case of `O=C(c1nc(NS(=O)(=O)c2ccc(C(F)(F)F)cc2Cl)ccc1Sc1ccc(S(=O)(=O)C2CCOCC2)cc1)C1CC1` [Compound 102, 2-Chloro-N-{6-cyclopropanecarbonyl-5-[4-(tetrahydro-pyran-4-sulfonyl)-phenylsulfanyl]-pyridin-2-yl}-4-trifluoromethyl-benzenesulfonamide], the IC50 is reported as under 1 µM.

Reference: patent US7893077B2, “Bisaryl-sulfonamides” (Amgen Inc., priority 2004, dated 2011)
